Assay results taken from ChEMBL document CHEMBL1201862, “PubChem BioAssay data set” (2004).
Each block holds one compound with its values, some of them ahead of it. Activity calls are given as the source filed them.

How the values were obtained:
[1] = miR-122 activators in hepatoma reporter cells, dose response, cell-based, Huh7 psiCHECK-miR122, Renilla luciferase, cherry-picked (AID 651956); type: functional;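 note: huh7 hepatoma cells stably carrying a psiCHECK-2 miR-122 sensor plasmid; renilla luciferase signal reporting endogenous miR-122 activity after 48 h compound exposure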
[2] = molecular target: T1, Hepatocyte nuclear factor 4-alpha (Homo sapiens, UniProt P41235); type: functional, cell-based;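 note: biochemical luminescence-based dose-response counterscreen measuring inhibition of HNF4 dimerization, run alongside a screen for blockers of ABHD5–perilipin-5 interaction; split luciferase complementation of HNF4 fusion proteins in cell lysate measuring dimerization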
T1 sequence (P41235 whole entry): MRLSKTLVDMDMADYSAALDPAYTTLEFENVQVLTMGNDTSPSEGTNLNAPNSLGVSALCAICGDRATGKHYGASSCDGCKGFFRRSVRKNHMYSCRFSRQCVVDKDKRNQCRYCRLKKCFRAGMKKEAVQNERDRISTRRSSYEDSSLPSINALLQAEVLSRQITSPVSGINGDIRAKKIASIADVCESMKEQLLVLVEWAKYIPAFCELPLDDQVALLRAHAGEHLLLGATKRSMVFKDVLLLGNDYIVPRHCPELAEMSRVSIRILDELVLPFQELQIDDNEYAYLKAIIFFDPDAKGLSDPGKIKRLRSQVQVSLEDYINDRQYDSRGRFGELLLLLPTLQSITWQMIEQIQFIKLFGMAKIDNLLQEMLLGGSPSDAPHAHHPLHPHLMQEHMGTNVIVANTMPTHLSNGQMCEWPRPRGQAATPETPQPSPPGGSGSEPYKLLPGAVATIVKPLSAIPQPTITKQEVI

[3] = inhibitors of HIV Env-driven cell fusion, dose response, cherry-pick (AID 652057); type: functional, cell-based
[4] = ZM109 Env clade C HIV-1 fusion inhibitors, dose response, HeLa effector, CEM target cells, luciferase, cherry-pick (AID 652058); type: functional, cell-based
[5] = off-target signal loss in HeLa-CEM21 co-culture – HeLa F-luc CTL cells, cherry-picked, counter-screen for HIV-1 Env fusion inhibitor project, dose response (AID 652040); type: functional, cell-based;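 note: potency for signal decrease marking cytotoxic or nonspecific inhibition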
[6] = inhibitors of clade B AD8 Env fusion, dose response, cell-based, cherry-pick (AID 652062); type: functional;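 note: luciferase signal from cell-cell fusion driven by HIV-1 clade B AD8 Env; potency is for inhibitors of fusion seen as a drop in luminescence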
[7] = molecular target: T2, Low molecular weight phosphotyrosine protein phosphatase (Homo sapiens, UniProt P24666); type: functional; conditions: read-out: IC50_Mean
T2 sequence (P24666 whole entry): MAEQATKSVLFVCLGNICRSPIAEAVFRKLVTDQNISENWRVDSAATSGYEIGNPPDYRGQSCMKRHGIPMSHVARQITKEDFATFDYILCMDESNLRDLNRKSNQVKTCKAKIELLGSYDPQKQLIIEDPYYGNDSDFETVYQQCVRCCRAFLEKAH

[8] = molecular target: T2, Low molecular weight phosphotyrosine protein phosphatase; type: functional; conditions: read-out: IC50_Mean; remark: listed apart in the source
[9] = growth suppression of PTEN-null colon cells, dose response, cell-based, HCT116 PTEN knockout (AID 1047); type: functional;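 note: HCT116 colon tumor cells with PTEN knocked out; cells exposed to compound for 60 hours before readout; potency for loss of cell viability measured by luminescence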
[10] = growth suppression of beta-catenin-knockout colon cells, dose response, cell-based, HCT116, human colon tumor (AID 1045); type: functional;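 note: HCT116 colon tumor cells with beta catenin knocked out; cells exposed to compound for 60 hours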
[11] = Luminescence Cell-Based Dose Retest to Confirm Inhibitors of Cancer Stem Cells. [Related pubchem assays (depositor defined):AID2717, AID2721]; type: functional; conditions: Homo sapiens
[12] = HeLa cell cytotoxicity, dose response, cytotoxicity control for MgcRacGAP inhibitor project (AID 624300); type: functional
[13] = molecular target: T3, DNA repair protein RAD52 homolog (Homo sapiens, UniProt P43351); type: functional, biochemical
T3 sequence (P43351 whole entry): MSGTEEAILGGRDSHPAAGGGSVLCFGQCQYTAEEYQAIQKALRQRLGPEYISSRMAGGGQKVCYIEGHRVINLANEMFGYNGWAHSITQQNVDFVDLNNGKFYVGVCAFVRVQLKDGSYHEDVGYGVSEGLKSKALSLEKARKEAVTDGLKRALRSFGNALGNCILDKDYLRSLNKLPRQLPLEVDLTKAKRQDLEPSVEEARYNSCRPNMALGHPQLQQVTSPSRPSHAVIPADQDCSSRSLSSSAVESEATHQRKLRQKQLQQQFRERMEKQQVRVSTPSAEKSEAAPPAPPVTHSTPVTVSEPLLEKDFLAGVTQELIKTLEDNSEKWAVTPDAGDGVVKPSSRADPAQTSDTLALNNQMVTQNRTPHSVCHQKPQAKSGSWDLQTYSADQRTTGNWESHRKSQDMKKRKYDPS

Paired box protein Pax-8 = Paired box protein Pax-8 (Homo sapiens, UniProt Q06710); experiment: inhibitors of PAX8-driven TPO luciferase reporter, dose response, RMG-I cells, cherry-pick (AID 687027); type: functional, cell-based;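 note: luciferase reporter driven by Pax8 target thyroperoxidase promoter measured by SteadyGlo luminescence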
[14] = non-specific cell cytotoxicity, dose response, cytotoxicity control for PAX8 inhibitor project, plate reader, dry powder samples (AID 743021); type: functional, cell-based

Sequence of Paired box protein Pax-8 (Q06710 whole entry): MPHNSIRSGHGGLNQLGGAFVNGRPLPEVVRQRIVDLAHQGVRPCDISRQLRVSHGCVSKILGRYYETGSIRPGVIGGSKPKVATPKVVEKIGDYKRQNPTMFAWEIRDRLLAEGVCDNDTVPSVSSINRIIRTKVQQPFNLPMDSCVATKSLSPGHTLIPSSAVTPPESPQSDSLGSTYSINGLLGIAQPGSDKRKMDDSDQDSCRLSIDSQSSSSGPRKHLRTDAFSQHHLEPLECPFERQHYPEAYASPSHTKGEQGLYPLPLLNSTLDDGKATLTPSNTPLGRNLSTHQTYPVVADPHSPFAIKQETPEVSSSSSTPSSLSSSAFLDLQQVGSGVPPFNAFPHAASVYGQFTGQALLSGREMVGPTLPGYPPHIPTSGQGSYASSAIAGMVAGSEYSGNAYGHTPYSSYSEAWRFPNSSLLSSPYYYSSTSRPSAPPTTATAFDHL

Compound: COC(=O)C[C@@H]1CC[C@@H]2[C@H](COc3ccc(NC(=O)Nc4cccc(F)c4)cc3C(=O)N2C)O1
AC50 [1]: 40.1 µM (active)

Compound: COCC(=O)N(C)C[C@H]1[C@H](c2ccccc2)[C@@H](CO)N1C(=O)NC(C)C
AC50 [1]: 50.3 µM (active)

IC50 [2]: 6.11 µM (active)
Compound: CCCCCNC(=O)C(C1CC1)n1c(=O)c(-c2ccco2)nc2ccccc21 (configuration not stated)

Compound: C=C1CCN([C@@H](Cc2ccccc2)C(=O)Nc2ccc(OC)cc2)S(=O)(=O)c2ccccc21
AC50 [3]: 0.923 µM (active) | AC50 [4]: 0.848 µM (active) | AC50 [5]: 1.31 µM (active) | AC50 [6]: 2.03 µM (active)

IC50 [7]: > 80 µM (inactive) | IC50 [8]: 57.2 µM (inactive)
Compound: CN1CCc2c(sc(/N=C/c3c[nH]c4ccccc34)c2C(N)=O)C1

Compound: O=C/C(=N\Nc1ccc(Cl)cc1)C(=O)c1ccncc1
EC50 [9]: 116 µM (active) | EC50 [10]: 42.2 µM (active) | AC50 [11]: 5.23 µM (active) | IC50 [2]: 28.9 µM (inactive)

Compound: COc1ccc2cc(CNCCOCCOCCNCc3ccc4cc(OC)ccc4c3)ccc2c1
CC50 [12]: 9.1 µM (active) | AC50 [13]: 2.45 µM (active) | AC50 (Paired box protein Pax-8): 19.1 µM (active) | AC50 [14]: 20.3 µM (active)
